According to PubChem BioAssay (NCI):
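Growth conditions: 96-well plates. Treatment: test compound, 48 hours, 5 concentrations. Analysis: linear interpolation between bracketing concentrations; unreached endpoints set to highest concentration. The concentration for 50% growth inhibition is given as GI50. At the TGI there is no net growth.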

Columns and labels:
Assay in all cases: inhibition of tumour cell growth, NCI panel, 48 h
SNB-19 CNS = system: SNB-19 CNS
HCT-116 colon = system: HCT-116 colon
RPMI-8226 leukemia = system: RPMI-8226 leukemia
HCT-15 colon = system: HCT-15 colon
NCI-H23 lung = system: NCI-H23 lung
ACHN renal = system: ACHN renal
SK-MEL-2 melanoma = system: SK-MEL-2 melanoma
HOP-92 NSCLC = system: HOP-92 NSCLC
EKVX NSCLC = system: EKVX NSCLC
T-47D breast = system: T-47D breast

Structure (SMILES)	GI50 (SNB-19 CNS) [µM]	TGI (SNB-19 CNS) [µM]	GI50 (HCT-116 colon) [µM]	TGI (HCT-116 colon) [µM]	GI50 (RPMI-8226 leukemia) [µM]	TGI (RPMI-8226 leukemia) [µM]	GI50 (HCT-15 colon) [µM]	TGI (HCT-15 colon) [µM]	GI50 (NCI-H23 lung) [µM]	TGI (NCI-H23 lung) [µM]	GI50 (ACHN renal) [µM]	TGI (ACHN renal) [µM]	GI50 (SK-MEL-2 melanoma) [µM]	TGI (SK-MEL-2 melanoma) [µM]	TGI (HOP-92 NSCLC) [µM]	TGI (EKVX NSCLC) [µM]	GI50 (EKVX NSCLC) [µM]	GI50 (T-47D breast) [µM]	TGI (T-47D breast) [µM]	GI50 (HOP-92 NSCLC) [µM]
CC1=CC[C@@H]2C(=O)C=CC=C[C@H]12.[C-]#[O+].[C-]#[O+].[C-]#[O+].[Fe]	> 100	> 100	> 100	> 100	> 100	> 100	> 100	> 100	> 100	> 100	> 100	> 100	> 100	> 100	–	–	–	–	–	–
CC(C)=CC1(C)/C(=N\O)C(C)(CC(C)C)C(=O)N1O (stereo not drawn)	–	> 100	–	> 100	–	> 100	–	> 100	–	> 100	–	> 100	–	> 100	> 100	> 100	–	–	–	–
Cc1ccc(Nn2c(SCC(=O)Nc3nc(-c4ccccc4)cs3)nc(C)c2C)cc1	7.5	> 100	2.82	26.5	–	–	5.17	> 100	3.42	> 100	4.06	62.9	7.58	35.3	–	5.61	1.39	1.85	10.4	–
CC(C)CCCC(C)[C@H]1CCC2C3CC=C4C[C@@H](OC(=O)CC(CC(=O)[O-])C(=O)[O-])CC[C@]4(C)C3CC[C@@]21C.N.N.[Pt+4] (stereo partly drawn)	> 100	> 100	> 100	> 100	> 100	> 100	> 100	> 100	–	–	47.6	> 100	–	–	> 100	> 100	> 100	–	–	> 100
Cc1c(-c2cc(-c3ccccc3)n[nH]c2=O)c2ccccc2n1C	–	> 100	–	> 100	–	> 100	–	> 100	–	> 100	–	> 100	–	> 100	> 100	> 100	–	–	–	–
CCOC(=O)C1=C(Nc2cccc3ccccc23)OCC1=O	–	> 100	–	> 100	–	> 100	–	–	–	> 100	–	> 100	–	> 100	> 100	> 100	–	–	–	–
NC(=S)N/N=C1/C(=O)N(c2ccccc2)C(=O)C1C(=O)Nc1ccccc1 (stereo not drawn)	–	> 100	–	> 100	–	–	–	> 100	–	> 100	–	> 100	–	> 100	> 100	> 100	–	–	–	–
COc1ccc(C#CC2=C(Br)C(=O)OC2)cc1	12	> 50	1.4	35.7	2.14	> 50	2.63	11.3	10.6	25.3	3.56	13.2	23	> 50	–	17	6.9	–	–	–
NC1=C(/C(N)=N/O)C(c2ccccc2)c2ccc3ccccc3c2O1 (stereo not drawn)	0.471	> 100	0.444	30.7	0.38	28.9	0.226	20.1	0.479	> 100	0.458	51.1	19.9	> 100	> 73.1	> 100	1.01	–	–	0.579
CC(C)(C)CC(C)(C)c1cc2c(O)c(c1)Cc1cc(C(C)(C)CC(C)(C)C)cc(c1O)Cc1cc(C(C)(C)CC(C)(C)C)cc(c1O)Cc1cc(C(C)(C)CC(C)(C)C)cc(c1O)Cc1cc(C(C)(C)CC(C)(C)C)cc(c1O)Cc1cc(C(C)(C)CC(C)(C)C)cc(c1O)Cc1cc(C(C)(C)CC(C)(C)C)cc(c1O)Cc1cc(C(C)(C)CC(C)(C)C)cc(c1O)C2	–	> 100	–	> 100	–	> 100	–	> 100	–	> 100	–	> 100	–	> 100	> 100	> 100	–	–	–	–
CN(C)C(=S)/N=C(\N)N(C)C	–	> 100	–	> 100	–	> 100	–	> 100	–	> 100	–	> 100	–	> 100	> 100	> 100	–	–	–	–
Nc1ncnc2c1N=CN(Oc1ccccc1)N2	–	–	–	> 100	–	> 100	–	> 100	–	> 100	–	> 100	–	> 100	> 100	> 100	–	–	–	–
O=C(/C=C/c1ccco1)N1CCN(Cc2ccccc2)CC1	–	> 100	–	> 100	–	> 100	–	> 100	–	> 100	–	> 100	–	–	> 100	> 100	–	–	–	–
C=CCC(O)c1cc(OC)ccc1OC (stereo not drawn)	–	> 100	–	–	–	> 100	–	> 100	–	–	–	> 100	–	> 100	> 100	> 100	–	–	–	–
